Consider 14 compounds from US8378117B2 (priority 2005, dated 2013).

For assay [1], the target named is T1, CB1 receptor (Homo sapiens, UniProt P21554).
T1 construct: expressed in transfected cells
Description: Binding assay for CB1 agonists or inverse agonists (SK-N-MC membranes, [3H]-CP-55,940). The note with it: for CB1 receptor binding average percent inhibition: value shown is an average percent inhibition (footnote 5), concentration not given. An outline of the steps:
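Membranes from SK-N-MC cells stably expressing human CB1 incubated with compound and [3H]-CP-55,940 ([…]) for 90 min at 30° C in Tris-HCl pH 7.5, MgCl2, EDTA, fatty-acid-free BSA. Non-specific binding defined with 10 uM WIN 55,212; filtration, scintillation count; IC50 by linear regression.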

The next assay has as its target T2, CB2 receptor (Homo sapiens, UniProt P34972).
T2 construct: expressed in transfected cells
Kind of assay: Binding assay for CB2 agonists or inverse agonists (SK-N-MC membranes, [3H]-CP-55,940). Particulars: for CB2 receptor binding percent inhibition: test concentration not stated. An outline of the steps:
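Membranes from SK-N-MC cells stably expressing human CB2 were incubated with radioligand and test compounds for 90 min at 30 °C in Tris-HCl buffer, pH 7.5, with MgCl2, EDTA and fatty-acid-free BSA. Filter-bound radioactivity was counted; IC50 was derived by linear regression of percent inhibition.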

The target of assay [2] is T1, CB1 receptor. Description: cell-based. An excerpt: The CB1 and CB2 receptors are G-protein coupled receptors (GPCR), which influence cell function via the Gi-protein. These receptors modulate the activity of intracellular adenylate cyclase, which in turn produces the intracellular signal messenger cyclic-AMP (cAMP).
At baseline, or during non-ligand bound conditions, these receptors are constitutively active and tonically suppress adenylate cyclase activity. The binding of an agonist causes further receptor activation and produces additional suppression of adenylate cyclase activity. The binding of an inverse agonist inhibits the constitutive activity of the receptors and results in an increase in adenylate cyclase activity.
By monitoring intracellular adenylate cyclase activity, the ability of compounds to act as agonists or inverse agonists can be determined.
Test compounds were evaluated in SK-N-MC cells which, using standard transfection procedures, were stably transfected with human cDNA for pcDNA3-CRE β-gal and pcDNA3 CB1 receptor (human) or pcDNA3 CB2 receptor (human). By expressing CRE β-gal, the cells produced β-galactosidase in response to CRE promoter activation by cAMP. Cells expressing CRE β-gal and either the human CB1 or CB2 receptor will produce less β-galactosidase when treated with a CB1/CB2 agonist and will produce more β-galactosidase when treated with a CB1/CB2 inverse agonist.
The cells were grown in 96-well plates under standard cell culture conditions at 37° C. in a 5% CO2 atmosphere and culture media (wherein the media was supplemented with 2 mM L-glutamine, […] sodium pyruvate, 10% FBS (fetal bovine serum) and antibiotics).
The change in forskolin induced β-galactosidase activity was determined by setting a vehicle treated cell's activity value at 100% and expressing the β-galactosidase activity measured in a corresponding compound treated cell as a percent of the vehicle treated cell activity.
The EC50 value for functional activity for compounds tested was calculated by linear regression and was obtained from studies in which varying compound concentrations were used.
Where an EC50 value was not obtained for a test compound, the value shown (in %) represents change in functional activity and was obtained from a study in which one compound concentration was used.

Setting [3] is: Cannabinoid CB1 Receptor Binding IC50, calculated by linear regression from percent inhibition at various test concentrations.
Where [4] appears, read: read-out: CB1 receptor binding percent inhibition, test concentration 1 μM (footnote 1).
[5] abbreviates: CB1 Receptor Functional Agonist EC50, SK-N-MC cells, forskolin induced β-galactosidase activity.
Where [6] appears, read: CB1 Receptor Functional Inverse Agonist EC50, forskolin induced β-galactosidase activity, SK-N-MC cells.
The mark [7] stands for this setting: calculated by linear regression from percent inhibition at various test concentrations, read-out: Cannabinoid CB1 Receptor Binding IC50.
The mark [8] stands for this setting: test concentration 1 μM (footnote 1), read-out: CB2 receptor binding percent inhibition.
Setting [9] is: forskolin induced β-galactosidase activity, SK-N-MC cells, read-out: CB1 Receptor Functional Inverse Agonist EC50.

Molecules are shown by their SMILES. Like-named read-outs stand apart in the source and are kept apart here.

T1 sequence (P21554 whole entry): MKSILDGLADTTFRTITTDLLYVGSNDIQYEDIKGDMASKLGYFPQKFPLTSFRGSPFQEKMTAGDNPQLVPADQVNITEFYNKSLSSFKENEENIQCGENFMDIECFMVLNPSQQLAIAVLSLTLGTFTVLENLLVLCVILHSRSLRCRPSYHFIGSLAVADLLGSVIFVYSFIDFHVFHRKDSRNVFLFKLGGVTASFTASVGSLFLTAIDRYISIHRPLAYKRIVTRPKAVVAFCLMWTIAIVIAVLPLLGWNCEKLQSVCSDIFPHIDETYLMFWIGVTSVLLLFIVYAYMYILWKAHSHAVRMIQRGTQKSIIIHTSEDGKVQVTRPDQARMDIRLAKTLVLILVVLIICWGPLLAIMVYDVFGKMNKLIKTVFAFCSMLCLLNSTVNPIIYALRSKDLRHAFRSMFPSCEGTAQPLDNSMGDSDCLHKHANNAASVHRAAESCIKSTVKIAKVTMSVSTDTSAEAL
T2 sequence (P34972 whole entry): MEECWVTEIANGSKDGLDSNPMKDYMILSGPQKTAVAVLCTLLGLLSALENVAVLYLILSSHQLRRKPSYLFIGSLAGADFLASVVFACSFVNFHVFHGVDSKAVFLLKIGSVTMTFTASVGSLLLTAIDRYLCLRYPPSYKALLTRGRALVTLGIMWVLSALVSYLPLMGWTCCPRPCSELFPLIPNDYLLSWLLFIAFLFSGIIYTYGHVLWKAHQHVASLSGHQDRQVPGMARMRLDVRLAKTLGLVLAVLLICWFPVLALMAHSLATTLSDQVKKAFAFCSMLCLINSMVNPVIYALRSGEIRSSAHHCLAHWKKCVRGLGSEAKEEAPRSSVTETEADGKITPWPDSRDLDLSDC

A word on the IC50: it is the concentration needed to halve the response being measured. A word on the EC50: it is the concentration giving half of the maximal effect. For `Cn1nc(C(=O)N[C@H]2C3(C)CCC(C3)C2(C)C)c2c1C(Cc1ccccc1Cl)CCCC2` (stereo partly drawn) [Cpd 40, 8-(2-chloro-benzyl)-1-methyl-1,4,5,6,7,8-hexahydro-cycloheptapyrazole-3-carboxylic acid [(2S)-1,3,3-trimethyl-bicyclo[2.2.1]hept-2-yl]-amide], the IC50 at CB1 receptor [1] (setting [3]) is 70 nM. Also, the inhibition at 1 µM at CB1 receptor [1] (setting [4]) was 84%; on CB2 receptor (read-out: CB2 receptor binding percent inhibition, test concentration 1 μM (footnote 1)), 84%. Moreover, the inhibition at 0.015 µM on CB2 receptor (read-out: CB2 receptor binding percent inhibition, test concentration 0.015 μM (footnote 7)) came to 65%. Besides, on CB2 receptor, the “CB2 receptor binding percent inhibition” value stood at 75%. Moreover, a half-maximal effect at CB1 receptor [2] (setting [5]) (EC50) was put at 100 nM.

Consider `O=C(NC1CCC1)c1nn(-c2ccc(Cl)cc2Cl)c2c1CCCCC2Cc1cccc(F)c1` (stereo not drawn) [Cpd 41, 1-(2,4-dichloro-phenyl)-8-(3-fluoro-benzyl)-1,4,5,6,7,8-hexahydro-cycloheptapyrazole-3-carboxylic acid cyclobutylamide], for which, on CB1 receptor [1] (setting [3]), the IC50 was 500 nM. Further, the inhibition at 1 µM at CB1 receptor [1] (setting [4]) is 68%. The “CB2 receptor binding percent inhibition” value at CB2 receptor worked out at 46%. The EC50 on CB1 receptor [2] (setting [6]) was determined as 100 nM.

In the case of `CC12CCC(C1)C(C)(C)[C@H]2NC(=O)c1nn(-c2ccc(Cl)cc2Cl)c2c1CCCCC2Cc1cccc(F)c1` (stereo partly drawn) [Cpd 42, 1-(2,4-dichloro-phenyl)-8-(3-fluoro-benzyl)-1,4,5,6,7,8-hexahydro-cycloheptapyrazole-3-carboxylic acid [(2S)-1,3,3-trimethyl-bicyclo[2.2.1]hept-2-yl]-amide], the concentration for half-maximal inhibition (IC50) on CB1 receptor [1] (setting [7]) is 300 nM; at CB2 receptor (calculated by linear regression from percent inhibition at various test concentrations, read-out: Cannabinoid CB2 Receptor Binding IC50) it was 300 nM. Besides, the results for the inhibition at 1 µM on CB1 receptor [1] (setting [4]) and on CB2 receptor (setting [8]) were 65% and 52%, respectively. In addition, the EC50 on CB1 receptor [2] (setting [9]) was determined as 300 nM.

`C[C@H](NC(=O)c1nn(C2CCCCC2)c2c1CCCCC2Cc1cccc(F)c1)c1ccccc1` (stereo partly drawn) [Cpd 45, 1-cyclohexyl-8-(3-fluoro-benzyl)-1,4,5,6,7,8-hexahydro-cycloheptapyrazole-3-carboxylic acid [(1S)-1-phenyl-ethyl]-amide]: on CB1 receptor [1] (setting [7]), the IC50 was 700 nM. In addition, the inhibition at 1 µM on CB1 receptor [1] (setting [4]) was determined as 54%. Besides, at CB2 receptor, the “CB2 receptor binding percent inhibition” value turned out to be 42%. Also, the concentration for a half-maximal effect (EC50) at CB1 receptor [2] (setting [9]) was 1100 nM.

In the case of `C[C@H](NC(=O)c1nn(Cc2ccccc2)c2c1CCCCC2c1ccccc1)c1ccccc1` (stereo partly drawn) [Cpd 48, 1-benzyl-8-phenyl-1,4,5,6,7,8-hexahydro-cycloheptapyrazole-3-carboxylic acid [(1S)-1-phenyl-ethyl]-amide], the IC50 on CB1 receptor [1] (setting [7]) is 300 nM. Moreover, at CB1 receptor [1] (setting [4]), the inhibition at 1 µM was 63%. Further, the “CB2 receptor binding percent inhibition” value on CB2 receptor stood at 42%. In addition, the EC50 on CB1 receptor [2] (setting [9]) amounted to 300 nM.

Turning to `O=C(N[C@@H](CO)c1ccccc1)c1nn(C2CCCCC2)c2c1CCCCC2Cc1cccc(F)c1` (stereo partly drawn) [Cpd 55, 1-cyclohexyl-8-(3-fluoro-benzyl)-1,4,5,6,7,8-hexahydro-cycloheptapyrazole-3-carboxylic acid [(1R)-2-hydroxy-1-phenyl-ethyl]-amide], the inhibition at 1 µM at CB1 receptor [1] (read-out: CB1 receptor binding percent inhibition) worked out at 50%. Moreover, the “CB2 receptor binding percent inhibition” value at CB2 receptor was 18%. Moreover, the response on CB1 receptor [2] (setting [6]) was half-maximal at 400 nM (EC50).

Turning to `CC12CCC(C1)C(C)(C)[C@H]2NC(=O)c1nn(C2CCCCC2)c2c1CCCCC2Cc1ccc(F)cc1` (stereo partly drawn) [Cpd 58, 1-cyclohexyl-8-(4-fluoro-benzyl)-1,4,5,6,7,8-hexahydro-cycloheptapyrazole-3-carboxylic acid [(2S)-1,3,3-trimethyl-bicyclo[2.2.1]hept-2-yl]-amide], the IC50 at CB1 receptor [1] (setting [7]) was 200 nM. In addition, the figures for the inhibition at 1 µM at CB1 receptor [1] (setting [4]) and at CB2 receptor (setting [8]) were 75% and 98%, respectively. Also, at CB2 receptor (test concentration 0.015 μM (footnote 7), read-out: CB2 receptor binding percent inhibition), the inhibition at 0.015 µM was 65%. Moreover, the “CB2 receptor binding percent inhibition” value at CB2 receptor was found to be 74%. Further, the EC50 at CB1 receptor [2] (SK-N-MC cells, forskolin induced β-galactosidase activity, read-out: CB1 Receptor Functional Agonist EC50) was 1400 nM.

As for `C[C@H](NS(=O)(=O)/C=C/c1nn(C2CCCCC2)c2c1CCCCC2Cc1cccc(F)c1)c1ccccc1` (stereo partly drawn) [Cpd 75, (2E)-2-[1-cyclohexyl-8-(3-fluoro-benzyl)-1,4,5,6,7,8-hexahydro-cycloheptapyrazol-3-yl]-ethenesulfonic acid [(1S)-1-phenyl-ethyl]-amide], the half-maximal inhibitory concentration (IC50) on CB1 receptor [1] (setting [3]) was 200 nM. For the same compound, the “CB1 receptor binding average percent inhibition” value on CB1 receptor [1] is reported as 77%. Further, at CB2 receptor, the “CB2 receptor binding percent inhibition” value stood at 27%. The EC50 at CB1 receptor [2] (setting [6]) worked out at 70 nM.

For the compound `COC(=O)[C@@H](Cc1ccc(F)cc1)NC(=O)c1nn(-c2ccc(Cl)cc2Cl)c2c1CCCC[C@@H]2Cc1cccc(F)c1` [Cpd 77, (2R)-2-{[(8R)-1-(2,4-dichloro-phenyl)-8-(3-fluoro-benzyl)-1,4,5,6,7,8-hexahydro-cycloheptapyrazole-3-carbonyl]-amino}-3-(4-fluoro-phenyl)-propionic acid methyl ester], the inhibition at 1 µM at CB1 receptor [1] (setting [4]) amounted to 44%. For the same compound, at CB1 receptor [1] (test concentration not stated), the “CB1 receptor binding percent inhibition” value is recorded as 51%. In addition, the “CB1 receptor binding average percent inhibition” value on CB1 receptor [1] is 57%. Besides, the “CB2 receptor binding percent inhibition” value at CB2 receptor is on record as 28%. Besides, at CB1 receptor [2] (setting [6]), the EC50 amounted to 100 nM.

Take `COC(=O)[C@@H](Cc1ccc(F)cc1)NC(=O)c1nn(-c2ccc(Cl)cc2Cl)c2c1CCCC[C@H]2Cc1cccc(F)c1` [Cpd 78, (2R)-2-{[(8S)-1-(2,4-dichloro-phenyl)-8-(3-fluoro-benzyl)-1,4,5,6,7,8-hexahydro-cycloheptapyrazole-3-carbonyl]-amino}-3-(4-fluoro-phenyl)-propionic acid methyl ester]: the half-maximal inhibitory concentration (IC50) on CB1 receptor [1] (setting [3]) is 400 nM. In addition, the “CB1 receptor binding average percent inhibition” value at CB1 receptor [1] is listed as 59%. At CB2 receptor, the “CB2 receptor binding percent inhibition” value came out at 23%. This compound also yielded an EC50 on CB1 receptor [2] (setting [6]) of 200 nM.

On to `CCOC(=O)[C@H]1C2C=CC(C2)[C@H]1NC(=O)c1nn(-c2ccc(Cl)cc2Cl)c2c1CCCCC2Cc1cccc(F)c1` (stereo partly drawn) [Cpd 79, (2S,3R)-3-{[1-(2,4-dichloro-phenyl)-8-(3-fluoro-benzyl)-1,4,5,6,7,8-hexahydro-cycloheptapyrazole-3-carbonyl]-amino}-bicyclo[2.2.1]hept-5-ene-2-carboxylic acid ethyl ester], for which, on CB1 receptor [1], the “CB1 receptor binding average percent inhibition” value is on record as “^(5)37%”. Moreover, the “CB2 receptor binding percent inhibition” value at CB2 receptor was found to be 29%. On CB1 receptor [2] (setting [6]), this compound returned an EC50 of 500 nM.

Regarding `COC(=O)[C@@H](Cc1ccc(O)cc1)NC(=O)c1nn(-c2ccc(Cl)cc2Cl)c2c1CCCCC2Cc1cccc(F)c1` (stereo partly drawn) [Cpd 80, (2R)-2-{[1-(2,4-dichloro-phenyl)-8-(3-fluoro-benzyl)-1,4,5,6,7,8-hexahydro-cycloheptapyrazole-3-carbonyl]-amino}-3-(4-hydroxy-phenyl)-propionic acid methyl ester], the 50% inhibitory concentration (IC50) at CB1 receptor [1] (setting [3]) is 700 nM. In addition, on CB1 receptor [1], the “CB1 receptor binding average percent inhibition” value turned out to be 51%. Moreover, the “CB2 receptor binding percent inhibition” value on CB2 receptor amounted to 23%. The compound also had an EC50 on CB1 receptor [2] (setting [6]) of 60 nM.

Take `COC(=O)[C@@H](Cc1ccc(O)cc1)NC(=O)c1nn(-c2ccc(Cl)cc2Cl)c2c1CCCCC2Cc1ccc(F)cc1` (stereo partly drawn) [Cpd 81, (2R)-2-{[1-(2,4-dichloro-phenyl)-8-(4-fluoro-benzyl)-1,4,5,6,7,8-hexahydro-cycloheptapyrazole-3-carbonyl]-amino}-3-(4-hydroxy-phenyl)-propionic acid methyl ester]: the “CB1 receptor binding average percent inhibition” value at CB1 receptor [1] is on record as “^(5)42%”. The “CB2 receptor binding percent inhibition” value at CB2 receptor came out at 28%. Further, the EC50 on CB1 receptor [2] (setting [9]) came to 300 nM.

Regarding `COC(=O)[C@@H](Cc1ccc(O)cc1)NC(=O)c1nn(C2CCCCC2)c2c1CCCCC2Cc1ccc(F)cc1` (stereo partly drawn) [Cpd 83, (2R)-2-{[1-cyclohexyl-8-(4-fluoro-benzyl)-1,4,5,6,7,8-hexahydro-cycloheptapyrazole-3-carbonyl]-amino}-3-(4-hydroxy-phenyl)-propionic acid methyl ester], the IC50 at CB1 receptor [1] (setting [3]) is 100 nM; at CB2 receptor (Cannabinoid CB2 Receptor Binding IC50, calculated by linear regression from percent inhibition at various test concentrations), 10 nM. Also, the “CB1 receptor binding average percent inhibition” value at CB1 receptor [1] is reported as 90%. Besides, the “CB2 receptor binding average percent inhibition” value on CB2 receptor (value shown is an average percent inhibition (footnote 5), concentration not given) was 98%. This compound also had an EC50 at CB1 receptor [2] (setting [5]) of 1700 nM.
